# Measured values: patent US20040033901A1, “Uses for cellulose-containing aggregates” (priority 1994, published 2004)
# Tested on: termites
# Assay: field test of termite attack on a weighted board on a one inch bed of aggregates
# Type: in vivo
# Conditions: one inch thick bed on ground surface in termite-infested area, after one year
# From the text: In a field test, a one inch thick bed of aggregates containing either 0.1% Deltamethrin, 0.001% Deltamethrin, or no Deltamethrin were positioned on ground surface in an area known to be infested with termites and a weighted board was positioned on the top of the bed. […] Thus, at least for Deltamethrin, a toxin level of 0.001 wt % appears both effective and long lived.
smiles,measurement,setting,value
CC1(C)[C@H](C(=O)O[C@H](C#N)c2cccc(Oc3ccccc3)c2)[C@@H]1C=C(Br)Br [Deltamethrin],protection of board from termite attack,aggregates containing 0.001% Deltamethrin,totally protected
same,protection of board from termite attack,aggregates containing 0.1% Deltamethrin,totally protected
